Data as given in US7605163B2, “Benzoyl-piperazine derivatives” (Hoffmann-La Roche Inc., priority 2003, dated 2009).

These compounds were tested against T1, mGlyT-1b (Mus musculus, UniProt P28571) (assay: Glycine Uptake Inhibition Assay (mGlyT-1b)). Conditions: [3H]-glycine uptake inhibition at GlyT-1, Flp-in-CHO cells transfected with mGlyT-1b cDNA.
T1 construct: host or cells: Flp-in-CHO cells
T1 sequence (P28571 1-651 isoform P28571-2): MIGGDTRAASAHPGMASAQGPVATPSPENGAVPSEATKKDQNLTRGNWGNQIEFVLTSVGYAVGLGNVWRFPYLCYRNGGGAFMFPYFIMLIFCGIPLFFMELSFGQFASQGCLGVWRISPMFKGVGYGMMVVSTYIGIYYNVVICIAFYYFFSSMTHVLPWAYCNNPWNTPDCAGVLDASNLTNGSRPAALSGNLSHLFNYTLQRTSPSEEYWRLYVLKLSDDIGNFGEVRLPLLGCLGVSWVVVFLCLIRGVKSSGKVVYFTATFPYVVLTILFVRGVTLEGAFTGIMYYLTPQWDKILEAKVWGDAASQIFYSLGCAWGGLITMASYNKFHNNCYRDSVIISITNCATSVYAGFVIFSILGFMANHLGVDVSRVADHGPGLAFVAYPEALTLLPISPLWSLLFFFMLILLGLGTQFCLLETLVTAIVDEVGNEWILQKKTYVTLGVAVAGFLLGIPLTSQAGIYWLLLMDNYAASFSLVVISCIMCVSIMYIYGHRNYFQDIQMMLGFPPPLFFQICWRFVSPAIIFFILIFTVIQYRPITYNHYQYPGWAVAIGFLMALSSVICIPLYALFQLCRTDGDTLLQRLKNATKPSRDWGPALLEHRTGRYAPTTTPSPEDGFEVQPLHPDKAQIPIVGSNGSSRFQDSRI
Format: cell-based
In short: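 Flp-in CHO cells stably expressing mouse GlyT-1b preincubated 20 min at 22 °C with inhibitor in pH 7.4 uptake buffer, then given 60 nM [3H]-glycine plus 25 μM unlabelled glycine. Cell radioactivity counted by scintillation; nonspecific uptake defined with 10 mM glycine; IC50 from concentration range.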
Compound `CS(=O)(=O)c1ccc(OCCC(F)(F)F)c(C(=O)N2CCN(c3ccc(C#N)cc3F)CC2)c1` [compound 112] has an IC50 of 24 nM. Compound `CC(C)(C)Oc1ccc(S(C)(=O)=O)cc1C(=O)N1CCN(c2ccc(C#N)cc2F)CC1` [compound 244] has an IC50 of 42 nM. `CNS(=O)(=O)c1ccc(OC2CCCC2)c(C(=O)N2CCN(c3ccc(C(F)(F)F)cc3)CC2)c1` [compound 527] was tested, and the IC50 was 6 nM. `CS(=O)(=O)c1ccc(OCC(F)(F)C(F)F)c(C(=O)N2CCN(c3ccc(C#N)cc3F)CC2)c1` [compound 210] showed an IC50 of 39 nM. `CC(Oc1ccc(S(C)(=O)=O)cc1C(=O)N1CCN(c2cc(F)c(C#N)cc2F)CC1)C(F)(F)F` (racemic) [compound 261] showed an IC50 of 43 nM. Compound `O=C(c1cc([N+](=O)[O-])ccc1OCC1CC1)N1CCN(c2ccc(C(F)(F)F)cc2)CC1` [Example 63, (2-Cyclopropylmethoxy-5-nitro-phenyl)-[4-(4-trifluoromethyl-phenyl)-piperazin-1-yl]-methanone] has an IC50 of 28 nM. Compound `CS(=O)(=O)c1ccc(OC2CCCC2)c(C(=O)N2CCN(c3ccc(C(F)(F)F)nc3)CC2)c1` [compound 430] has an IC50 of 37 nM. Work on `N#Cc1ccc(N2CCN(C(=O)c3cc(S(=O)(=O)C4CC4)ccc3OC3CCCC3)CC2)c(F)c1` [compound 546] yielded an IC50 of 35 nM. `CS(=O)(=O)c1ccc(OCC2CCC2)c(C(=O)N2CCN(c3ccc(C#N)cc3F)CC2)c1` [compound 138] gave an IC50 of 17 nM. With `CCCCOc1ccc([N+](=O)[O-])cc1C(=O)N1CCN(c2ccc(C(F)(F)F)cc2)CC1` [Example 66, (2-Butoxy-5-nitro-phenyl)-[4-(4-trifluoromethyl-phenyl)-piperazin-1-yl]-methanone] the IC50 was 32 nM. Work on `CC(Oc1ccc(S(C)(=O)=O)cc1C(=O)N1CCN(c2ncc(C(F)(F)F)cc2F)CC1)C(F)(F)F` (racemic) [compound 438] yielded an IC50 of 47 nM. `CNS(=O)(=O)c1ccc(OCC2CC2)c(C(=O)N2CCN(c3ccc(C(F)(F)F)cc3)CC2)c1` [compound 529] gave an IC50 of 13 nM. Work on `CNS(=O)(=O)c1ccc(OC(C)C)c(C(=O)N2CCN(c3ccc(C(F)(F)F)cc3)CC2)c1` [compound 526] yielded an IC50 of 9 nM. Work on `CC(C)(C)COc1ccc(S(C)(=O)=O)cc1C(=O)N1CCN(c2ccc(C#N)c(F)c2)CC1` [compound 292] yielded an IC50 of 21 nM. For `CC(C)Oc1ccc(S(C)(=O)=O)cc1C(=O)N1CCN(c2ccc(S(=O)(=O)C3CCC3)cc2F)CC1` [compound 570], the IC50 was 46 nM. `CC(=O)c1ccc(N2CCN(C(=O)c3cc(S(C)(=O)=O)ccc3OC3CCC3)CC2)c(F)c1` [compound 311] showed an IC50 of 45 nM. In the case of `CNS(=O)(=O)c1ccc(OC(F)(F)F)c(C(=O)N2CCN(c3ccc(C#N)c(F)c3)CC2)c1` [compound 111], the IC50 is reported as 35 nM. With `CC(C)(C)COc1ccc([N+](=O)[O-])cc1C(=O)N1CCN(c2ccc(C(F)(F)F)cc2)CC1` [Example 68, [2-(2,2-Dimethyl-propoxy)-5-nitro-phenyl]-[4-(4-trifluoromethyl-phenyl)-piperazin-1-yl]-methanone] the IC50 was 8 nM. `CC(=O)c1ccc(N2CCN(C(=O)c3cc(S(C)(=O)=O)ccc3OCC3CCC3)CC2)c(F)c1` [compound 142] was tested, and the IC50 was 34 nM. `CCCOc1ccc([N+](=O)[O-])cc1C(=O)N1CCN(c2ccc(C(F)(F)F)cc2)CC1` [Example 72, (5-Nitro-2-propoxy-phenyl)-[4-(4-trifluoromethyl-phenyl)-piperazin-1-yl]-methanone] gave an IC50 of 26 nM. `CC(Oc1ccc(S(C)(=O)=O)cc1C(=O)N1CCN(c2ccc(Br)cn2)CC1)C(F)(F)F` (racemic) [compound 435] showed an IC50 of 29 nM. Work on `CC(C)COc1ccc(S(C)(=O)=O)cc1C(=O)N1CCN(c2cc(F)c(C#N)c(F)c2)CC1` [compound 169] yielded an IC50 of 12 nM. With `COCCS(=O)(=O)c1ccc(N2CCN(C(=O)c3cc(S(C)(=O)=O)ccc3OC(C)C)CC2)c(F)c1` [compound 561] the IC50 was 38 nM. In the case of `CC(C)COc1ccc(S(C)(=O)=O)cc1C(=O)N1CCN(c2c(F)cc(C#N)cc2F)CC1` [compound 164], the IC50 is reported as 19 nM. Work on `CNS(=O)(=O)c1ccc(OC2CCCC2)c(C(=O)N2CCN(c3ccc(C#N)cc3)CC2)c1` [compound 491] yielded an IC50 of 37 nM. `CC(Oc1ccc(S(C)(=O)=O)cc1C(=O)N1CCN(c2ccc(C#N)cc2)CC1)C(F)(F)F` (racemic) [compound 298] gave an IC50 of 21 nM. For `CS(=O)(=O)c1ccc(OCC(F)(F)F)c(C(=O)N2CCN(c3ccc(C(F)(F)F)cc3F)CC2)c1` [Example 28, [4-(2-fluoro-4-trifluoromethyl-phenyl)-piperazin-1-yl]-[5-methanesulfonyl-2-(2,2,2-trifluoro-ethoxy)-phenyl]-methanone], the IC50 was 12 nM. With `CCS(=O)(=O)c1ccc(N2CCN(C(=O)c3cc(S(C)(=O)=O)ccc3OCC3CC3)CC2)c(F)c1` [compound 562] the IC50 was 44 nM. `CC(C)Oc1ccc(S(C)(=O)=O)cc1C(=O)N1CCN(c2ccc(C#N)c(F)c2F)CC1` [compound 109] gave an IC50 of 21 nM. Compound `O=C(c1cc([N+](=O)[O-])ccc1OCC(F)(F)C(F)F)N1CCN(c2ccc(C(F)(F)F)cc2)CC1` [Example 80, [5-Nitro-2-(2,2,3,3-tetrafluoro-propoxy)-phenyl]-[4-(4-trifluoromethyl-phenyl)-piperazin-1-yl]-methanone] has an IC50 of 29 nM. `CS(=O)(=O)c1ccc(OC2CCC2)c(C(=O)N2CCN(c3ccc(C(F)(F)F)c(F)c3)CC2)c1` [compound 317] gave an IC50 of 41 nM. In the case of `CS(=O)(=O)c1ccc(OCC(F)(F)C(F)(F)F)c(C(=O)N2CCN(c3ccc(C(F)(F)F)cc3)CC2)c1` [compound 182], the IC50 is reported as 30 nM. `CC(Oc1ccc(S(C)(=O)=O)cc1C(=O)N1CCN(c2ccc(Cl)c(Cl)c2)CC1)C(F)(F)F` (racemic) [compound 258] was tested, and the IC50 was 86 nM. `CCC(C)Oc1ccc(S(C)(=O)=O)cc1C(=O)N1CCN(c2ccc(C(F)(F)F)c(F)c2)CC1` (racemic) [compound 325] was tested, and the IC50 was 33 nM. For `CS(=O)(=O)c1ccc(OCC(F)(F)C(F)F)c(C(=O)N2CCN(c3ccc(C(F)(F)F)cc3)CC2)c1` [compound 211], the IC50 was 43 nM. Compound `CS(=O)(=O)c1ccc(OCCC(F)(F)F)c(C(=O)N2CCN(c3ccc(C(F)(F)F)c(F)c3)CC2)c1` [compound 116] has an IC50 of 19 nM. Compound `CC(C)(C)COc1ccc(S(C)(=O)=O)cc1C(=O)N1CCN(c2ccc(S(C)(=O)=O)cc2F)CC1` [compound 296] has an IC50 of 43 nM. For `CC(Oc1ccc(S(C)(=O)=O)cc1C(=O)N1CCN(c2ccc(C(F)(F)F)cn2)CC1)C(F)(F)F` (single isomer, unassigned) [compound 465], the IC50 was 40 nM. In the case of `CS(=O)(=O)c1ccc(OC2CCCC2)c(C(=O)N2CCN(c3ncc(C(F)(F)F)cc3F)CC2)c1` [compound 439], the IC50 is reported as 21 nM. Work on `CC(Oc1ccc(S(C)(=O)=O)cc1C(=O)N1CCN(c2ccc(C(F)(F)F)cc2F)CC1)C(F)(F)F` (racemic) [compound 302] yielded an IC50 of 13 nM. For `CNS(=O)(=O)c1ccc(OCC2CCC2)c(C(=O)N2CCN(c3ccc(C#N)c(F)c3)CC2)c1` [compound 481], the IC50 was 30 nM. Work on `CC(C)Oc1ccc(S(C)(=O)=O)cc1C(=O)N1CCN(c2ncc(C(F)(F)F)cc2Cl)CC1` [compound 417] yielded an IC50 of 46 nM.
